This is an account of results in patent US20060217368A1, “Drug for nerve regeneration” (Kyowa Hakko Kogyo Co., Ltd., priority 2003, published 2006).

Common to all, as to type: cell-based, rat
Data set [1] concerns ANSC-7 cells. Description: Neuropoiesis of ANSC-7 adult neural stem cells: number of Tuj1 positive neurons after induction of differentiation. How it is done: ANSC-7 cells which can be obtained by the method described in Reference Example 2 are plated at 1.8×10^5 cells per well in a 12-well culture dish which was coated with polyornithine and laminin and was filled with a DMEM/F12 medium containing 1 ml of a 1% N2 supplement (manufactured by Invitrogen Corporation) and 20 ng/ml FGF-2 (manufactured by PeproTech Inc.), and incubated overnight. Entire culture fluid is changed into a DMEM/F12 medium containing 0.5% fetal bovine serum and a 1% N2 supplement without including FGF2 (manufactured by Invitrogen Corporation, hereinafter, referred to as differentiation inducing medium) to induce differentiation. Upon the induction, the substance that inhibits the activity of GSK-3 serially diluted in PBS (manufactured by Invitrogen Corporation) or DMSO in the range of from 0.01 mmol/l to […] is added thereto in 1/1000 volume. As a negative control, the same volume of PBS or DMSO is added.
After changing the culture fluid into the differentiation inducing medium supplemented with each substance that inhibits the activity of GSK-3 every three days, and inducing differentiation for 6 days, it is replaced with a 15% neutral buffered formalin solution (Wako Pure Chemical Industries, Ltd.) to allow fixation for 20 min. Thereafter, washing with PBS containing 0.3% Triton X-100 (manufactured by Nacalai Tesque, Inc.) for 5 min is repeated three times. Next, after blocking the cells using a 10% goat fetal serum diluted in PBS (manufactured by DAKO Corporation) for 2 hrs, a reaction is allowed with a mouse anti-Tuj1 (β tubulin isotype III) antibody (manufactured by Sigma-Aldrich Corporation) diluted 1000 times in PBS as a primary antibody at 4° C. for 16 hrs. Thereafter, washing with PBS containing 0.3% Triton X-100 for 5 min is repeated three times.
Next, a reaction is allowed with Alexa Fluor 488 conjugate goat anti-mouse IgG antibody (manufactured by Molecular Probes, Inc.) diluted 1000 times as a secondary antibody at room temperature for 2 hrs. At the same time, Bisbenzimide H 33342 Fluorochrome, Trihydrochloride (manufactured by CALBIOCHEM, hereinafter, described as H33342) is added thereto to give the final concentration of 1 μg/ml to stain the nucleus. After immersing in PBS, observation with an inverted fluorescence microscope (manufactured by Nikon Corporation) is conducted, and the number of Tuj1 positive cells per 2.44 mm^2 is counted.

The test system of data set [2] is ANSC-7 cells. Description: Suppression of neuropoiesis by associated beta amyloid peptide and relief by GSK-3 inhibitor (Tuj1 positive neurons). Conditions: day 6. How it is done:
A beta amyloid peptide (hereinafter, referred to as Aβ) is a principal component constituting senile plaques, and it is a substance which has been believed to be a cause of Alzheimer's disease [Proc. Nat. Acad. Sci., USA, 98, 11039-11041 (2001)]. Aβ [1-40] (manufactured by BIOSOURCE) was dissolved in 0.1% (v/v) trifluoroacetic acid (Manufactured by Nacalai Tesque, Inc.) to give 10 mg/ml, and incubated at 25° C. for 1 hour. Thereafter, the solution was diluted in PBS to give 0.5 mg/ml. The diluted solution was incubated at 25° C. for 24 hrs to allow the formation of an associated product [J. Biol. Chem., 276, 42027-42034 (2001)]. […] On day 2 and day 4 following the induction of differentiation, the entire medium was changed to the differentiation inducing medium alone, respectively, and the number of neurons was measured on day 6 following induction of the differentiation.
According to a similar method to that shown in Experimental Example 8, lithiumchloride at a final concentration of 3 mmol/l, or Kenpaullone at a final concentration of 2 μmol/l was added to a differentiation inducing medium containing the associated Aβ at a final concentration of 0.1 mg/ml upon inducing differentiation of the ANSC-7 cell, and the number of Tuj1 positive neurons on day 6 following inducing differentiation was analyzed.

Data set [3] relates to ANSC-7 cells. As to the kind of experiment: Apoptosis of ANSC-7 cells (in situ cell death detection kit, fluorescein). Conditions: final concentration 0.1 mg/ml; 6 days; vs PBS. On the procedure: According to the method described in the above section 7, lithium chloride was added to give the final concentration of 3 mmol/l into the medium containing ANSC-7 cells followed by culture for 6 days. ANSC-7 cells thus cultured after adding lithium chloride, and ANSC-7 cells cultured after adding PBS as a control were allowed to a reaction using an in situ cell death detection kit, fluorescein (manufactured by Roche Diagnostics K.K.) according to the attached protocol. The cells were observed using an inverted fluorescence microscope (manufactured by Nikon Corporation), and the number of apoptotic cell was counted per 2.44 mm^2.
According to a similar method to that shown in Experimental Example 8, ANSC-7 cells subjected to induction of differentiation for 6 days by a differentiation inducing medium containing the associated Aβ at the final concentration of 0.1 mg/ml, and ANSC-7 cells subjected to induction of differentiation by a medium containing PBS as a control were allowed to react using an in situ cell death detection kit, fluorescein (manufactured by Roche Diagnostics K.K.) according to the attached protocol. The cells were observed using an inverted fluorescence microscope (manufactured by Nikon Corporation), and the number of apoptotic cells per 2.44 mm^2 was counted.

For data set [4], the system named is ANSC-7 cells. Description: Neuropoiesis of ANSC-7 adult neural stem cells: number of Tuj1 positive neurons after induction of differentiation. The note with it: siRNA introduced into ANSC-7; day 6.
The next data set has as its system GSK-3α. Description: Amount of GSK-3α in ANSC-7 cells after siRNA introduction (Western blotting). Conditions: 150 pmol per 1×10^6 ANSC-7 cells; 48 hrs following seeding. For orientation: In western blotting, separated proteins are transferred to a membrane and probed.
Setting [5] is: final concentration 2 μmol/l, day 6.
Where [6] appears, read: final concentration 5 μmol/l, day 6.

As for `Cn1cc(C2=C(c3ccc(Cl)cc3Cl)C(=O)NC2=O)c2ccccc21` [SB-216763, 3-(2,4-dichlorophenyl)-4-(1-methylindole-3-yl)-1H-pyrrole-2,5-dione], the “number of Tuj1 positive neurons relative to control” value is recorded as 1.2 times in the data set on ANSC-7 cells [1] (final concentration 0.3 μmol/l, day 6) and 1.8 times in the data set on ANSC-7 cells [1] (final concentration 1.0 μmol/l, day 6).

On to `C=C[C@@]1(C)CC(=O)[C@]2(O)[C@@]3(C)[C@@H](O)CCC(C)(C)[C@@H]3[C@H](O)[C@H](OC(C)=O)[C@@]2(C)O1` [forskolin], for which the “rate of increase in neurons” value is given as 1.2 times in the data set with ANSC-7 cells [1] (1 μmol/l, coexistence with 3 mmol/l lithium chloride); 1.9 times in the data set with ANSC-7 cells [1] (1 μmol/l, without lithium chloride); 1.1 times in the data set with ANSC-7 cells [1] (5 μmol/l, coexistence with 3 mmol/l lithium chloride); 2.2 times in the data set on ANSC-7 cells [1] (5 μmol/l, without lithium chloride).

On to indirubin-3′-monoxime, for which the “number of Tuj1 positive neurons in comparison with the negative control” value with ANSC-7 cells [1] (final concentration 1 μmol/l, day 6) is reported as 1.4 times.

In the case of `O=C1Cc2c([nH]c3ccc(Br)cc23)-c2ccccc2N1` [Kenpaullone, 9-bromo-7,12-dihydro-indolo[3,2-d][1]benzazepin-6(5H)-one], the “increase in number of Tuj1 positive neurons in comparison with associated Aβ alone” value in the data set on ANSC-7 cells [2] (2 μmol/l with 0.1 mg/ml associated Aβ) is 400%. In addition, the “number of Tuj1 positive neurons in comparison with the negative control” value in the data set on ANSC-7 cells [1] (final concentration 0.5 μmol/l, day 6) stood at 1.3 times; in the data set with ANSC-7 cells [1] (setting [5]), 2.7 times; in the data set with ANSC-7 cells [1] (setting [6]) it was 3.7 times.

Turning to “associated Aβ: beta amyloid peptide Aβ [1-40] incubated to form an associated product”, the “increase in number of apoptotic positive cells” value in the data set on ANSC-7 cells [3] was 14%. The “decrease in number of Tuj1 positive neurons” value in the data set with ANSC-7 cells [2] (final concentration 0.1 mg/ml, vs PBS) is on record as 78%.

With `CC[C@H](CO)Nc1nc(NCc2ccccc2)c2ncn(C(C)C)c2n1` [Roscovitine], the “number of Tuj1 positive neurons in comparison with the negative control” value with ANSC-7 cells [1] (setting [5]) worked out at 1.0 times; in the data set on ANSC-7 cells [1] (setting [6]) it was 1.2 times; in the data set on ANSC-7 cells [1] (final concentration 10 μmol/l, day 6), 1.1 times.

As to “siRNA-B2: double stranded siRNA having SEQ ID NO: 16 and 17, specific for GSK-3β (chain 1 GUCUAGCCUAUAUCCAUUCUU; chain 2 GAAUGGAUAUAGGCUAGACUU; listed as RNA, chemistry not given here)”, in the data set with ANSC-7 cells [4], the “number of Tuj1 positive neurons in comparison with the negative control siRNA” value came to 1.9 times. For the same molecule, the “amount of GSK-3α” value in the data set with GSK-3α is “unchanged”.

Consider `[Cl-].[Na+]` [sodium chloride], for which the “number of Tuj1 positive neurons relative to control” value with ANSC-7 cells [1] (final concentration 0.01 mmol/l, day 6 following induction of differentiation) came out at 1.0 times; with ANSC-7 cells [1] (final concentration 0.1 mmol/l, day 6 following induction of differentiation), 1.1 times; with ANSC-7 cells [1] (final concentration 1 mmol/l, day 6 following induction of differentiation), 1.2 times; in the data set with ANSC-7 cells [1] (final concentration 3 mmol/l, day 6 following induction of differentiation) it was 1.2 times.

“siRNA-B1: double stranded siRNA having SEQ ID NO: 14 and 15, specific for GSK-3β (chain 1 GUCAGUUACACAGACACUAUU; chain 2 UAGUGUCUGUGUAACUGACUU; listed as RNA, chemistry not given here)”: the “number of Tuj1 positive neurons in comparison with the negative control siRNA” value in the data set with ANSC-7 cells [4] was determined as 2.5 times. For the same molecule, in the data set on GSK-3α, the “amount of GSK-3α” value is given as “unchanged”.
